# Values of other authors, collected in article PMC8398847, “Isavuconazole: Thermodynamic Evaluation of Processes Sublimation, Dissolution and Partition in Pharmaceutically Relevant Media” (Molecules, 2021).
# Where “and” joins values, the source holds several entries; their conditions need not be identical. Equal values may be shown once.
# Details: 298.15 K; IVZ cluster; ref Table S1 [1]-[16]; cited from earlier work
Molecule,sublimation Gibbs energy (Table S1),sublimation enthalpy (Table S1)
"CC(O)(c1ccccc1)c1ccccc1 [1,1-diphenylethanol]",9.35 kcal/mol,25.1 kcal/mol
CC(C)(O)c1ccccc1 [1-methyl-1-phenylethanol],5.26 kcal/mol,19.7 kcal/mol
"Fc1ccccc1-c1ccccc1F [2,2'-difluorobiphenyl]",7.72 kcal/mol,22.7 kcal/mol
N#Cc1ccc2ccccc2c1 [2-Naphthalenecarbonitrile],8.08 kcal/mol,22 kcal/mol
O=C(O)c1ccccc1F [2-fluorobenzoic acid],8.48 kcal/mol,22.6 kcal/mol
N#Cc1cccc(F)c1 [3-Fluorobenzonitrile],3.78 kcal/mol,15.6 kcal/mol
O=C(O)c1cccc(F)c1 [3-fluorobenzoic acid],8.22 kcal/mol,22.4 kcal/mol
"Fc1ccc(-c2ccc(F)cc2)cc1 [4,4'-difluorobiphenyl]",7.22 kcal/mol,21.8 kcal/mol
N#Cc1ccc(Br)cc1 [4-Bromobenzonitrile],6.81 kcal/mol,19.3 kcal/mol
N#Cc1ccc(F)cc1 [4-Fluorobenzonitrile],4.21 kcal/mol,16.2 kcal/mol
Oc1ccc(F)cc1 [4-Fluorophenol],4.76 kcal/mol,17.7 kcal/mol
N#Cc1ccc(I)cc1 [4-Iodobenzonitrile],7.84 kcal/mol,21 kcal/mol
O=C(O)c1ccc(F)cc1 [4-fluorobenzoic acid],8.8 kcal/mol,22.3 kcal/mol
CC(O)(CS(=O)(=O)c1ccc(F)cc1)C(=O)Nc1ccc(C#N)c(C(F)(F)F)c1 (centres unmarked) [Bicalutamide],15.2 kcal/mol,29.8 kcal/mol
CC(C(=O)O)c1ccc(-c2ccccc2)c(F)c1 (centres unmarked) [Flurbiprofen],12.7 kcal/mol,26.34 kcal/mol
CC(=O)c1ccc(F)cc1 [p-fluoroacetophenone],4.21 kcal/mol,17.1 kcal/mol

# Same assay, conditions: 298.15 K; bicalutamide cluster; cited from earlier work
Molecule,"sublimation Gibbs energy (kJ∙mol-1, Table S2)","sublimation enthalpy (first kJ∙mol-1 column, Table S2)"
2-phenylcarbamoyl-3-methylquinoxaline-N-oxide,69.2 kJ/mol,145.1 kJ/mol
"CC(O)(c1ccccc1)c1ccccc1 [1,1-diphenylethanol]",39.1 kJ/mol,105 kJ/mol
Fc1ccc(-n2cccc2)cc1 [1-(4-fluorophenyl)pyrrole],25.4 kJ/mol,78.9 kJ/mol
"CC(O)Cc1nsc(Nc2ccc(F)cc2)n1 (centres unmarked) [1-[5-(4-Fluoro-phenylamino)-[1,2,4]thiadiazol-3-yl]-propan-2-ol]",59.1 kJ/mol,124.8 kJ/mol
CC(C)(O)c1ccccc1 [1-methyl-1-phenylethanol],22 kJ/mol,82.3 kJ/mol
CC(=O)Nc1ccccc1O [2'-Hydroxyacetanilide],52.8 kJ/mol,121.8 kJ/mol
"Fc1ccccc1-c1ccccc1F [2,2'-difluorobiphenyl]",32.3 kJ/mol,95 kJ/mol
CC(=O)Nc1ccccc1C(=O)O [2-(acetylamino)-Benzoic acid],54.4 kJ/mol,115.5 kJ/mol
NC(=O)c1ccccc1F [2-Fluorobenzamide],35.8 kJ/mol,95.4 kJ/mol
O=C(O)c1ccccc1F [2-fluorobenzoic acid],35.5 kJ/mol,94.4 kJ/mol
CC(=O)Nc1cccc(O)c1 [3-Acetamidophenol],56.4 kJ/mol,111 kJ/mol
NC(=O)c1cccc(F)c1 [3-Fluorobenzamide],42.5 kJ/mol,104.1 kJ/mol
O=[N+]([O-])c1cccc(F)c1 [3-Fluoronitrobenzene],17.1 kJ/mol,72.3 kJ/mol
O=C(O)c1cccc(F)c1 [3-fluorobenzoic acid],34.4 kJ/mol,93.6 kJ/mol
"Cc1ccccc1NC(=O)c1c(C)[n+]([O-])c2ccccc2[n+]1[O-] [3-methyl-N-(2-methylphenyl)-2-quinoxalinecarboxamide-1,4-dioxide]",71.9 kJ/mol,154.8 kJ/mol
CC(=O)Nc1ccc(Br)cc1 [4'-Bromoacetanilide],51.2 kJ/mol,113.4 kJ/mol
CC(=O)Nc1ccc(Cl)cc1 [4'-Chloroacetanilide],50.1 kJ/mol,113.8 kJ/mol
"Fc1ccc(-c2ccc(F)cc2)cc1 [4,4'-difluorobiphenyl]",30.2 kJ/mol,91.2 kJ/mol
CNc1ccc(C(=O)O)cc1 [4-(methylamino)benzoic acid],55.3 kJ/mol,123.9 kJ/mol
N#Cc1ccc(C(=O)O)cc1 [4-Cyanobenzoic acid],50.7 kJ/mol,112.8 kJ/mol
NC(=O)c1ccc(F)cc1 [4-Fluorobenzamide],43.2 kJ/mol,102.8 kJ/mol

Molecule,"sublimation Gibbs energy (kJ∙mol-1, Table S2)","sublimation enthalpy (first kJ∙mol-1 column, Table S2)"
O=[N+]([O-])c1ccc(F)cc1 [4-Fluoronitrobenzene],18.9 kJ/mol,70.9 kJ/mol
Oc1ccc(F)cc1 [4-Fluorophenol],19.9 kJ/mol,74.1 kJ/mol
O=C(O)c1ccc(F)cc1 [4-fluorobenzoic acid],36.8 kJ/mol,93.1 kJ/mol
CC(N)=O [Acetamide],40.5 kJ/mol,99.8 kJ/mol
CC(O)(CS(=O)(=O)c1ccc(F)cc1)C(=O)Nc1ccc(C#N)c(C(F)(F)F)c1 (centres unmarked) [Bicalutamide],63.7 kJ/mol,124.7 kJ/mol
"O=C(O)c1cc(-c2ccc(F)cc2F)ccc1O [Diflunisal (Form A), Diflunisal]",57.6 kJ/mol,120.1 kJ/mol
O=C(O)c1ccccc1Nc1cccc(C(F)(F)F)c1 [Flufenamic acid],54.3 kJ/mol,121.2 kJ/mol
Cc1cccc(Nc2ccccc2C(=O)O)c1C [Mefenamic Acid],59.2 kJ/mol,136.3 kJ/mol
CC(=O)Nc1ccccc1C [N-(2-methylphenyl)acetamide],40.9 kJ/mol,97.1 kJ/mol
"CC12CC3CC(C)(C1)CC(NS(=O)(=O)c1ccc(C(F)(F)F)cc1)(C3)C2 [N-(3,5-Dimethyl-adamantan-1-yl)-4-trifluoromethyl-benzenesulfonamide]",49.6 kJ/mol,107.7 kJ/mol
CC(=O)Nc1ccc(C)cc1 [N-(4-methylphenyl)acetamide],44.5 kJ/mol,99 kJ/mol
CC(=O)Nc1cccc2ccccc12 [N-acetyl-1-naphthylamine],47.9 kJ/mol,94 kJ/mol and 94.1 kJ/mol
c1ccc(CNc2ccccc2)cc1 [N-phenyl benzylamine],36.9 kJ/mol,104.4 kJ/mol
O=C(O)c1ccccc1Nc1ccccc1 [N-phenyl-Anthranilic acid],58.9 kJ/mol,126 kJ/mol
O=C(O)c1cccnc1Nc1cccc(C(F)(F)F)c1 [Niflumic acid],61.3 kJ/mol,130.2 kJ/mol
CC(=O)Nc1ccc(O)cc1 [Paracetamol],60 kJ/mol,117.9 kJ/mol
CC(=O)NCC(=O)Nc1ccccc1 [acetylglycine anilide],59.9 kJ/mol,125.4 kJ/mol
NC(=O)c1cccc(N)c1 [m-Aminobenzamide],57.5 kJ/mol and 57.8 kJ/mol,125.3 kJ/mol and 128.6 kJ/mol
NC(=O)c1ccccc1N [o-Aminobenzamide],46.1 kJ/mol,106.8 kJ/mol
NC(=O)c1ccc(N)cc1 [p-Aminobenzamide],61.7 kJ/mol,131.2 kJ/mol
CC(=O)Nc1ccc(C=O)cc1 [p-acetaminobenzaldehyde],44.1 kJ/mol,99.1 kJ/mol
